Data published in PMC6010064, “Discovery of curcumin inspired sulfonamide derivatives as a new class of carbonic anhydrase isoforms I, II, IX, and XII inhibitors” (Journal of Enzyme Inhibition and Medicinal Chemistry, 2017).

What follows are compounds tested against T1, hCA XII (Homo sapiens, UniProt O43570) (assay: stopped-flow CO2 hydrase assay). Details: not given.
T1 construct: gene CA12; recombinant, obtained in-house as reported earlier
Type: biochemical
Text: stopped-flow CO2 hydrase assay on hCA XII

T1 sequence (O43570 25-354): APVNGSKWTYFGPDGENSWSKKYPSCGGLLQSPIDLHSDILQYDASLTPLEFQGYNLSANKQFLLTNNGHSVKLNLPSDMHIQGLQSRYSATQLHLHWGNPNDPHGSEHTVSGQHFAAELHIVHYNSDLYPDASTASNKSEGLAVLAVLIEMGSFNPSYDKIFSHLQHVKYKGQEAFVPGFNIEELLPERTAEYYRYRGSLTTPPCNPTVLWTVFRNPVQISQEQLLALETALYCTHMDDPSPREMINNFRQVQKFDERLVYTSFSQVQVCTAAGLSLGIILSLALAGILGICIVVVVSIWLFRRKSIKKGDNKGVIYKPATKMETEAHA

Row | SMILES | Ki [nM]
1 | COc1ccc(/C=C/C(=O)/C=C/c2ccc(S(N)(=O)=O)cc2)c(OC)c1 [5c, 4-((1E,4E)-5-(2,4-dimethoxyphenyl)-3-oxopenta-1,4-dien-1-yl)benzenesulfonamide] | 7.4
2 | COc1ccc(/C=C/C(=O)/C=C/c2ccc(S(N)(=O)=O)cc2)c(OC)c1OC [5f, 4-((1E,4E)-3-oxo-5-(2,3,4-trimethoxyphenyl)penta-1,4-dien-1-yl)benzenesulfonamide] | 71.8
3 | COc1cc(OC)c(/C=C/C(=O)/C=C/c2ccc(S(N)(=O)=O)cc2)c(OC)c1 [5g, 4-((1E,4E)-3-oxo-5-(2,4,6-trimethoxyphenyl)penta-1,4-dien-1-yl)benzenesulfonamide] | 7.4
4 | COc1ccc(OC)c(/C=C/C(=O)/C=C/c2ccc(S(N)(=O)=O)cc2)c1 [5d, 4-((1E,4E)-5-(2,5-dimethoxyphenyl)-3-oxopenta-1,4-dien-1-yl)benzenesulfonamide] | 8.1
5 | COc1cc(/C=C/C(=O)/C=C/c2ccc(S(N)(=O)=O)cc2)cc(OC)c1OC [5h, 4-((1E,4E)-3-oxo-5-(3,4,5-trimethoxyphenyl)penta-1,4-dien-1-yl)benzenesulfonamide] | 25

Other lines, results leading:

Row | Ki [nM] | SMILES
6 | 31.1 | NS(=O)(=O)c1ccc(/C=C/C(=O)/C=C/c2ccc(Cl)cc2)cc1 [5i, 4-((1E,4E)-5-(4-chlorophenyl)-3-oxopenta-1,4-dien-1-yl)benzenesulfonamide]
7 | 6.1 | CC(C)Oc1ccc(/C=C/C(=O)/C=C/c2ccc(S(N)(=O)=O)cc2)cc1 [5a, 4-((1E,4E)-5-(4-isopropoxyphenyl)-3-oxopenta-1,4-dien-1-yl)benzenesulfonamide]
8 | 68 | COc1ccc(/C=C/C(=O)/C=C/c2ccc(S(N)(=O)=O)cc2)c(F)c1 [5j, 4-((1E,4E)-5-(2-fluoro-4-methoxyphenyl)-3-oxopenta-1,4-dien-1-yl)benzenesulfonamide]
9 | 52.2 | COc1ccc(/C=C/C(=O)/C=C/c2ccc(S(N)(=O)=O)cc2)cc1OC [5e, 4-((1E,4E)-5-(3,4-dimethoxyphenyl)-3-oxopenta-1,4-dien-1-yl)benzenesulfonamide]
10 | 6.3 | COc1ccc(/C=C/C(=O)/C=C/c2ccc(S(N)(=O)=O)cc2)cc1 [5b, 4-((1E,4E)-5-(4-methoxyphenyl)-3-oxopenta-1,4-dien-1-yl)benzenesulfonamide]

These compounds were tested against T2, hCA I (Homo sapiens, UniProt P00915) (assay: stopped-flow CO2 hydrase assay). Details: not given.
T2 construct: gene CA1; recombinant, obtained in-house as reported earlier
Type: biochemical
Text: stopped-flow CO2 hydrase assay on hCA I

T2 sequence (P00915 2-261): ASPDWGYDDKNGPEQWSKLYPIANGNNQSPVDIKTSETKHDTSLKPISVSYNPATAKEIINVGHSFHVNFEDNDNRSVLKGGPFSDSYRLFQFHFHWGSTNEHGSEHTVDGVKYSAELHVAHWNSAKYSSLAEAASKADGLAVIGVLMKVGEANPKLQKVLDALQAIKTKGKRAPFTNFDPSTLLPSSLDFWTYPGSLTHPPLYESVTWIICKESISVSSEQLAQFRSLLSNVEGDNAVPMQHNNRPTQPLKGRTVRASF

Row | SMILES | Ki [nM]
11 | COc1ccc(/C=C/C(=O)/C=C/c2ccc(S(N)(=O)=O)cc2)c(OC)c1 [5c, 4-((1E,4E)-5-(2,4-dimethoxyphenyl)-3-oxopenta-1,4-dien-1-yl)benzenesulfonamide] | 848
12 | COc1cc(OC)c(/C=C/C(=O)/C=C/c2ccc(S(N)(=O)=O)cc2)c(OC)c1 [5g, 4-((1E,4E)-3-oxo-5-(2,4,6-trimethoxyphenyl)penta-1,4-dien-1-yl)benzenesulfonamide] | 904
13 | COc1ccc(OC)c(/C=C/C(=O)/C=C/c2ccc(S(N)(=O)=O)cc2)c1 [5d, 4-((1E,4E)-5-(2,5-dimethoxyphenyl)-3-oxopenta-1,4-dien-1-yl)benzenesulfonamide] | 704
14 | COc1cc(/C=C/C(=O)/C=C/c2ccc(S(N)(=O)=O)cc2)cc(OC)c1OC [5h, 4-((1E,4E)-3-oxo-5-(3,4,5-trimethoxyphenyl)penta-1,4-dien-1-yl)benzenesulfonamide] | 595

Now from value to compound:

Row | Ki [nM] | SMILES
15 | 373 | NS(=O)(=O)c1ccc(/C=C/C(=O)/C=C/c2ccc(Cl)cc2)cc1 [5i, 4-((1E,4E)-5-(4-chlorophenyl)-3-oxopenta-1,4-dien-1-yl)benzenesulfonamide]
16 | 417 | CC(C)Oc1ccc(/C=C/C(=O)/C=C/c2ccc(S(N)(=O)=O)cc2)cc1 [5a, 4-((1E,4E)-5-(4-isopropoxyphenyl)-3-oxopenta-1,4-dien-1-yl)benzenesulfonamide]
17 | 246 | COc1ccc(/C=C/C(=O)/C=C/c2ccc(S(N)(=O)=O)cc2)c(F)c1 [5j, 4-((1E,4E)-5-(2-fluoro-4-methoxyphenyl)-3-oxopenta-1,4-dien-1-yl)benzenesulfonamide]
18 | 295 | COc1ccc(/C=C/C(=O)/C=C/c2ccc(S(N)(=O)=O)cc2)cc1OC [5e, 4-((1E,4E)-5-(3,4-dimethoxyphenyl)-3-oxopenta-1,4-dien-1-yl)benzenesulfonamide]
19 | 286 | COc1ccc(/C=C/C(=O)/C=C/c2ccc(S(N)(=O)=O)cc2)cc1 [5b, 4-((1E,4E)-5-(4-methoxyphenyl)-3-oxopenta-1,4-dien-1-yl)benzenesulfonamide]

Same assay, conditions: pH […] Hepes […], […] Na2SO4, CO2 substrate, […] min preincubation at room temperature

Row | Ki [nM] | SMILES
20 | 192 | COc1ccc(/C=C/C(=O)/C=C/c2ccc(S(N)(=O)=O)cc2)c(OC)c1OC [5f, 4-((1E,4E)-3-oxo-5-(2,3,4-trimethoxyphenyl)penta-1,4-dien-1-yl)benzenesulfonamide]

The compounds below were run against T3, hCA IX (Homo sapiens, UniProt Q16790) (assay: stopped-flow CO2 hydrase assay). Details: not given.
T3 construct: gene CA9; recombinant, obtained in-house as reported earlier
Type: biochemical
Text: stopped-flow CO2 hydrase assay on hCA IX

Row | SMILES | Ki [nM]
21 | COc1ccc(/C=C/C(=O)/C=C/c2ccc(S(N)(=O)=O)cc2)c(OC)c1 [5c, 4-((1E,4E)-5-(2,4-dimethoxyphenyl)-3-oxopenta-1,4-dien-1-yl)benzenesulfonamide] | 7.5
22 | COc1ccc(/C=C/C(=O)/C=C/c2ccc(S(N)(=O)=O)cc2)c(OC)c1OC [5f, 4-((1E,4E)-3-oxo-5-(2,3,4-trimethoxyphenyl)penta-1,4-dien-1-yl)benzenesulfonamide] | 2.4
23 | COc1cc(OC)c(/C=C/C(=O)/C=C/c2ccc(S(N)(=O)=O)cc2)c(OC)c1 [5g, 4-((1E,4E)-3-oxo-5-(2,4,6-trimethoxyphenyl)penta-1,4-dien-1-yl)benzenesulfonamide] | 2.4
24 | COc1ccc(OC)c(/C=C/C(=O)/C=C/c2ccc(S(N)(=O)=O)cc2)c1 [5d, 4-((1E,4E)-5-(2,5-dimethoxyphenyl)-3-oxopenta-1,4-dien-1-yl)benzenesulfonamide] | 8.4
25 | COc1cc(/C=C/C(=O)/C=C/c2ccc(S(N)(=O)=O)cc2)cc(OC)c1OC [5h, 4-((1E,4E)-3-oxo-5-(3,4,5-trimethoxyphenyl)penta-1,4-dien-1-yl)benzenesulfonamide] | 7.8

Now from value to compound:

Row | Ki [nM] | SMILES
26 | 87.3 | NS(=O)(=O)c1ccc(/C=C/C(=O)/C=C/c2ccc(Cl)cc2)cc1 [5i, 4-((1E,4E)-5-(4-chlorophenyl)-3-oxopenta-1,4-dien-1-yl)benzenesulfonamide]
27 | 2.3 | CC(C)Oc1ccc(/C=C/C(=O)/C=C/c2ccc(S(N)(=O)=O)cc2)cc1 [5a, 4-((1E,4E)-5-(4-isopropoxyphenyl)-3-oxopenta-1,4-dien-1-yl)benzenesulfonamide]
28 | 61 | COc1ccc(/C=C/C(=O)/C=C/c2ccc(S(N)(=O)=O)cc2)c(F)c1 [5j, 4-((1E,4E)-5-(2-fluoro-4-methoxyphenyl)-3-oxopenta-1,4-dien-1-yl)benzenesulfonamide]
29 | 2.3 | COc1ccc(/C=C/C(=O)/C=C/c2ccc(S(N)(=O)=O)cc2)cc1OC [5e, 4-((1E,4E)-5-(3,4-dimethoxyphenyl)-3-oxopenta-1,4-dien-1-yl)benzenesulfonamide]
30 | 8.6 | COc1ccc(/C=C/C(=O)/C=C/c2ccc(S(N)(=O)=O)cc2)cc1 [5b, 4-((1E,4E)-5-(4-methoxyphenyl)-3-oxopenta-1,4-dien-1-yl)benzenesulfonamide]

What follows are compounds tested against T4, hCA II (Homo sapiens, UniProt P00918) (assay: stopped-flow CO2 hydrase assay). Details: not given.
T4 construct: gene CA2; recombinant, obtained in-house as reported earlier
Type: biochemical
Text: stopped-flow CO2 hydrase assay on hCA II

Row | SMILES | Ki [nM]
31 | COc1ccc(/C=C/C(=O)/C=C/c2ccc(S(N)(=O)=O)cc2)c(OC)c1 [5c, 4-((1E,4E)-5-(2,4-dimethoxyphenyl)-3-oxopenta-1,4-dien-1-yl)benzenesulfonamide] | 4.7
32 | COc1ccc(/C=C/C(=O)/C=C/c2ccc(S(N)(=O)=O)cc2)c(OC)c1OC [5f, 4-((1E,4E)-3-oxo-5-(2,3,4-trimethoxyphenyl)penta-1,4-dien-1-yl)benzenesulfonamide] | 3
33 | COc1cc(OC)c(/C=C/C(=O)/C=C/c2ccc(S(N)(=O)=O)cc2)c(OC)c1 [5g, 4-((1E,4E)-3-oxo-5-(2,4,6-trimethoxyphenyl)penta-1,4-dien-1-yl)benzenesulfonamide] | 0.87
34 | COc1cc(/C=C/C(=O)/C=C/c2ccc(S(N)(=O)=O)cc2)cc(OC)c1OC [5h, 4-((1E,4E)-3-oxo-5-(3,4,5-trimethoxyphenyl)penta-1,4-dien-1-yl)benzenesulfonamide] | 8.8

The remaining lines, values ahead:

Row | Ki [nM] | SMILES
35 | 8.1 | NS(=O)(=O)c1ccc(/C=C/C(=O)/C=C/c2ccc(Cl)cc2)cc1 [5i, 4-((1E,4E)-5-(4-chlorophenyl)-3-oxopenta-1,4-dien-1-yl)benzenesulfonamide]
36 | 7.9 | CC(C)Oc1ccc(/C=C/C(=O)/C=C/c2ccc(S(N)(=O)=O)cc2)cc1 [5a, 4-((1E,4E)-5-(4-isopropoxyphenyl)-3-oxopenta-1,4-dien-1-yl)benzenesulfonamide]
37 | 8.2 | COc1ccc(/C=C/C(=O)/C=C/c2ccc(S(N)(=O)=O)cc2)c(F)c1 [5j, 4-((1E,4E)-5-(2-fluoro-4-methoxyphenyl)-3-oxopenta-1,4-dien-1-yl)benzenesulfonamide]
38 | 2.1 | COc1ccc(/C=C/C(=O)/C=C/c2ccc(S(N)(=O)=O)cc2)cc1 [5b, 4-((1E,4E)-5-(4-methoxyphenyl)-3-oxopenta-1,4-dien-1-yl)benzenesulfonamide]

Same assay, conditions: pH […] Hepes […], […] Na2SO4, CO2 substrate, […] min preincubation at room temperature

Row | Ki [nM] | SMILES
39 | 0.89 | COc1ccc(OC)c(/C=C/C(=O)/C=C/c2ccc(S(N)(=O)=O)cc2)c1 [5d, 4-((1E,4E)-5-(2,5-dimethoxyphenyl)-3-oxopenta-1,4-dien-1-yl)benzenesulfonamide]
40 | 0.75 | COc1ccc(/C=C/C(=O)/C=C/c2ccc(S(N)(=O)=O)cc2)cc1OC [5e, 4-((1E,4E)-5-(3,4-dimethoxyphenyl)-3-oxopenta-1,4-dien-1-yl)benzenesulfonamide]
